The values that follow come from publication PMC5123632 (2016).

As usually defined, the ΔTm is the shift of the melting midpoint relative to a reference.

In this assay the test system is nasT'FRET (DNA, G4) GGGAGCGGGACGGGGGCCGGG
Briefly: FRET melting. To be noted: 100 mM Na+; 10 mM sodium cacodylate pH 7.4; 1 μM ligand (stated for ligand 1).

In the case of `C[n+]1ccc(-c2c3nc(c(-c4cc[n+](C)cc4)c4ccc([nH]4)c(-c4cc[n+](C)cc4)c4nc(c(-c5cc[n+](C)cc5)c5ccc2[nH]5)C=C4)C=C3)cc1`, the ΔTm is 30 °C.
